Source: ChEMBL document CHEMBL5620359, “Discovery of 2,5-disubstituted furan derivatives featuring a benzamide motif for overcoming P-glycoprotein mediated multidrug resistance in MCF-7/ADR cell” (Eur J Med Chem, 2023)
Each block holds one compound with its values, some of them ahead of it. Calls of active or inactive are those of the source. No cut-off for these calls is given here.

How the values were obtained:
[1] = system: MCF7; test: Antitumor activity against human MCF7 cells incubated for 48 hrs by CCK8 assay; type: functional, cell-based; conditions: MCF7, 48 h
[2] = system: NCI/ADR-RES; test: Cytotoxicity against human MCF7ADR cells assessed as cell survival rate at 1 uM incubated for 48 hrs by CCK8 assay relative to control; type: functional
[3] = system: NCI/ADR-RES; test: Cytotoxicity against human MCF7ADR cells assessed as cell survival rate at 5 uM incubated for 48 hrs by CCK8 assay relative to control; type: functional
[4] = system: NCI/ADR-RES; test: Antitumor activity against human MCF7ADR cells xenografted in nude BALB/c mouse assessed as tumor weight reduction at 10 mg/kg, ip for 14 days administered every 2 days; type: functional, organism-based; conditions: time 14.0 day
[5] = system: NCI/ADR-RES; test: Reversal activity against doxorubicin-mediated resistance in human MCF7ADR cells assessed as reversal fold by measuring ratio of doxorubicin IC50 to doxorubicin IC50 in presence of test compound at 1 uM incubated for 48 hrs by CCK8 assay; type: functional
[6] = system: NCI/ADR-RES; test: Reversal activity against doxorubicin-mediated resistance in human MCF7ADR cells assessed as reversal fold by measuring ratio of doxorubicin IC50 to doxorubicin IC50 in presence of test compound at 5 uM incubated for 48 hrs by CCK8 assay; type: functional
[7] = system: NCI/ADR-RES; test: Antitumor activity against human MCF7ADR cells xenografted in nude BALB/c mouse assessed as tumor size reduction at 10 mg/kg, ip for 14 days administered every 2 days; type: functional, organism-based; conditions: time 14.0 day
[8] = system: MCF7; test: Cytotoxicity against human MCF7 cells assessed as cell survival rate at 5 uM incubated for 48 hrs by CCK8 assay relative to control; type: functional
[9] = system: NCI/ADR-RES; test: Reversal activity against daunorubicin-mediated resistance in human MCF7ADR cells assessed as reversal fold by measuring ratio of daunorubicin IC50 to daunorubicin IC50 in presence of test compound at 5 uM incubated for 48 hrs by CCK8 assay; type: functional
[10] = Toxicity in nude BALB/c mouse xenografted with human MCF7ADR cells assessed as morphological change in kidney at 10 mg/kg, ip for 14 days administered every 2 days by H and E staining based analysis; type: organism-based; conditions: in vivo, 336 h, time 14 day
[11] = Toxicity in nude BALB/c mouse xenografted with human MCF7ADR cells assessed as morphological change in lung at 10 mg/kg, ip for 14 days administered every 2 days by H and E staining based analysis; type: organism-based; conditions: in vivo, 336 h, time 14 day
[12] = system: NCI/ADR-RES; test: Reversal activity against doxorubicin-mediated resistance in human MCF7ADR cells assessed as reversal fold by measuring ratio of doxorubicin IC50 to doxorubicin IC50 in presence of test compound at 0.5 uM incubated for 48 hrs by CCK8 assay; type: functional
[13] = system: NCI/ADR-RES; test: Reversal activity against doxorubicin-mediated resistance in human MCF7ADR cells xenografted in nude BALB/c mouse at 10 mg/kg, ip for 14 days administered every 2 days; type: functional, organism-based; conditions: time 14.0 day
[14] = Toxicity in nude BALB/c mouse xenografted with human MCF7ADR cells assessed as body weight loss at 10 mg/kg, ip for 14 days administered every 2 days; type: organism-based; conditions: in vivo, 336 h, time 14 day
[15] = target: T1, ATP-dependent translocase ABCB1 (Homo sapiens, UniProt P08183); test: Inhibition of P-gp in human MCF7ADR cells assessed as increase in Rh123 accumulation at 0.1 to 10 uM incubated for 4 hrs by flow cytometry; type: cell-based; conditions: dose 0.1-10 µM
[16] = system: NCI/ADR-RES; test: Reversal activity against vincristine-mediated resistance in human MCF7ADR cells assessed as reversal fold by measuring ratio of vincristine IC50 to vincristine IC50 in presence of test compound at 5 uM incubated for 48 hrs by CCK8 assay; type: functional
[17] = target: T1, ATP-dependent translocase ABCB1; test: Inhibition of P-gp in human MCF7ADR cells assessed as increase in Rh123 accumulation at 0.1 to 10 uM incubated for 4 hrs by fluorescence microscopy; type: cell-based; conditions: dose 0.1-10 µM
[18] = Toxicity in nude BALB/c mouse xenografted with human MCF7ADR cells assessed as morphological change in spleen at 10 mg/kg, ip for 14 days administered every 2 days by H and E staining based analysis; type: organism-based; conditions: in vivo, 336 h, time 14 day
[19] = Toxicity in nude BALB/c mouse xenografted with human MCF7ADR cells assessed as body weight loss at 10 mg/kg, ip for 14 days administered every 2 days in presence of doxorubicin; type: organism-based; conditions: in vivo, 336 h, time 14 day
[20] = system: NCI/ADR-RES; test: Reversal activity against doxorubicin-mediated resistance in human MCF7ADR cells assessed as reversal fold by measuring ratio of doxorubicin IC50 to doxorubicin IC50 in presence of test compound at 0.1 uM incubated for 48 hrs by CCK8 assay; type: functional
[21] = system: NCI/ADR-RES; test: Reversal activity against paclitaxel-mediated resistance in human MCF7ADR cells assessed as reversal fold by measuring ratio of paclitaxel IC50 to paclitaxel IC50 in presence of test compound at 5 uM incubated for 48 hrs by CCK8 assay; type: functional
[22] = Toxicity in nude BALB/c mouse xenografted with human MCF7ADR cells assessed as morphological change in heart at 10 mg/kg, ip for 14 days administered every 2 days by H and E staining based analysis; type: organism-based; conditions: in vivo, 336 h, time 14 day
[23] = system: NCI/ADR-RES; test: Downregulation of P-gp expression in human MCF7ADR cells at 0.1 to 10 uM incubated for 48 hrs by Western blot analysis; type: functional, cell-based; conditions: dose 0.1-10 µM
[24] = system: NCI/ADR-RES; test: Antitumor activity against human MCF7ADR cells xenografted in nude BALB/c mouse assessed as tumor volume reduction at 10 mg/kg, ip for 14 days administered every 2 days; type: functional, organism-based; conditions: time 14.0 day
[25] = system: NCI/ADR-RES; test: Reversal activity against doxorubicin-mediated resistance in 3D spheroid model of human MCF7ADR cells assessed as reduction in tumor spheroid volume at 5 uM incubated for 9 days by inverted microscopy; type: functional, cell-based; conditions: time 9.0 day
[26] = Toxicity in nude BALB/c mouse xenografted with human MCF7ADR cells assessed as morphological change in liver at 10 mg/kg, ip for 14 days administered every 2 days by H and E staining based analysis; type: organism-based; conditions: in vivo, 336 h, time 14 day
[27] = Toxicity in nude BALB/c mouse xenografted with human MCF7ADR cells assessed as increase in nuclear density in liver at 3 mg/kg, ip for 14 days administered every 2 days by H and E staining based analysis; type: organism-based; conditions: in vivo, 336 h, time 14 day
[28] = Toxicity in nude BALB/c mouse xenografted with human MCF7ADR cells assessed as hyperplasia in spleen at 3 mg/kg, ip for 14 days administered every 2 days by H and E staining based analysis; type: organism-based; conditions: in vivo, 336 h, time 14 day
[29] = Toxicity in nude BALB/c mouse xenografted with human MCF7ADR cells assessed as reduction in spleen volume at 3 mg/kg, ip for 14 days administered every 2 days by H and E staining based analysis; type: organism-based; conditions: in vivo, 336 h, time 14 day
[30] = Toxicity in nude BALB/c mouse xenografted with human MCF7ADR cells assessed as reduction in liver volume at 3 mg/kg, ip for 14 days administered every 2 days by H and E staining based analysis; type: organism-based; conditions: in vivo, 336 h, time 14 day
[31] = Toxicity in nude BALB/c mouse xenografted with human MCF7ADR cells assessed as pathological change in spleen at 3 mg/kg, ip for 14 days administered every 2 days by H and E staining based analysis; type: organism-based; conditions: in vivo, 336 h, time 14 day
[32] = Toxicity in nude BALB/c mouse xenografted with human MCF7ADR cells assessed as increase in nuclear density in kidney at 3 mg/kg, ip for 14 days administered every 2 days by H and E staining based analysis; type: organism-based; conditions: in vivo, 336 h, time 14 day
[33] = Toxicity in nude BALB/c mouse xenografted with human MCF7ADR cells assessed as body weight loss at 3 mg/kg, ip for 14 days administered every 2 days; type: organism-based; conditions: in vivo, 336 h, time 14 day

T1 sequence (P08183 whole entry): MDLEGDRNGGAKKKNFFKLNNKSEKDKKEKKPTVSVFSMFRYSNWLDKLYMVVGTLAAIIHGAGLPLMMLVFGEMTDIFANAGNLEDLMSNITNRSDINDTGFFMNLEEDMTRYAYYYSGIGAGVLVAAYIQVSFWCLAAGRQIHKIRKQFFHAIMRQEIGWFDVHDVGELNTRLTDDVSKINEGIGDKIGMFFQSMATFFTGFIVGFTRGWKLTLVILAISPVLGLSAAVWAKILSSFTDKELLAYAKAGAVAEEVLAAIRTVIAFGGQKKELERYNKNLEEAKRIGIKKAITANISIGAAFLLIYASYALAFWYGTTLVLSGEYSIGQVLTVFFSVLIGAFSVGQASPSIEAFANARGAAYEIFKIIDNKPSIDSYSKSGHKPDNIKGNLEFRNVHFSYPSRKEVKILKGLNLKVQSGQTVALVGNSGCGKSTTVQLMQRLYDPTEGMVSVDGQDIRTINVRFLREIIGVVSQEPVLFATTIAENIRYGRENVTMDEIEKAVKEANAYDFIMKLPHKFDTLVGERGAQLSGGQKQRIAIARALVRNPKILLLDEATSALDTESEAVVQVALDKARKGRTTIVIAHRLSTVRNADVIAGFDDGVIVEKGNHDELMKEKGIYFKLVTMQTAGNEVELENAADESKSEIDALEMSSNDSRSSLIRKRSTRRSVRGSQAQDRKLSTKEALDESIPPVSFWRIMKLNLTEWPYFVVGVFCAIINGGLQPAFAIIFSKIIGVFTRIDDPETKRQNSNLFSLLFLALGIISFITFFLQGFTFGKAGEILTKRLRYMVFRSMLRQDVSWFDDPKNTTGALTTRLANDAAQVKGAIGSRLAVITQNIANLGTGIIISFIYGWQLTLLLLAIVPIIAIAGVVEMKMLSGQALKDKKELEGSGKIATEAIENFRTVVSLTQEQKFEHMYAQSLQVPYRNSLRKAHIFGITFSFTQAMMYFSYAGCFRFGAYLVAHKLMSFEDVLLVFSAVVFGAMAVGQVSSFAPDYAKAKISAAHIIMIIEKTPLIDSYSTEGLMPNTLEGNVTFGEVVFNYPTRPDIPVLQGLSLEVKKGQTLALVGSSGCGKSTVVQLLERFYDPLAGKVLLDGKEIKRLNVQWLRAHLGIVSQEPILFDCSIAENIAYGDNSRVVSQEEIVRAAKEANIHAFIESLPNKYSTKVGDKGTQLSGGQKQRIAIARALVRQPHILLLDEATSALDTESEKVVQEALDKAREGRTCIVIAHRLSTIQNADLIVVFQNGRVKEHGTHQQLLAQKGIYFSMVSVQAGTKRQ

- IC50 [1]: 980 nM
Compound: COc1cccc2c1C(=O)c1c(O)c3c(c(O)c1C2=O)C[C@@](O)(C(C)=O)C[C@@H]3O[C@H]1C[C@H](N)[C@H](O)[C@H](C)O1 [DAUNORUBICIN]

- IC50 [1]: 900 nM
Compound: CC[C@]1(O)C[C@H]2CN(CCc3c([nH]c4ccccc34)[C@@](C(=O)OC)(c3cc4c(cc3OC)N(C=O)[C@H]3[C@@](O)(C(=O)OC)[C@H](OC(C)=O)[C@]5(CC)C=CCN6CC[C@]43[C@@H]65)C2)C1 [VINCRISTINE]

- IC50 [1]: 550 nM
Compound: CC(=O)O[C@H]1C(=O)[C@@]2(C)[C@H]([C@H](OC(=O)c3ccccc3)[C@]3(O)C[C@H](OC(=O)[C@H](O)[C@@H](NC(=O)c4ccccc4)c4ccccc4)C(C)=C1C3(C)C)[C@]1(OC(C)=O)CO[C@@H]1C[C@@H]2O [PACLITAXEL]

Compound: COc1cc2c(cc1OC)CN(C(=O)c1ccc(-c3ccc(NC(=O)c4cccs4)cc3)o1)CC2
- Activity [2]: 92.3%
- Activity [3]: 26%

- inhibition (INH) [15]: Dose-Dependent Effect
- inhibition (INH) [17]: Dose-Dependent Effect
Compound: COc1ccc(C(=O)Nc2ccc(-c3ccc(C(=O)N4CCc5cc(OC)c(OC)cc5C4)o3)cc2)cc1
- Activity [4]: inactive
- fold change (FC) [5]: 110.5
- fold change (FC) [6]: 565
- Activity [7]: inactive
- Activity [8]: 80.4%
- fold change (FC) [9]: 143.4
- Activity [10]: Non-Toxic
- Activity [11]: Non-Toxic
- fold change (FC) [12]: 8.8
- Activity [13]: Active
- Activity [14]: Non-Toxic
- fold change (FC) [16]: 18.9
- Activity [18]: Non-Toxic
- Activity [19]: Toxic
- Activity [3]: 80.1%
- fold change (FC) [20]: 3.3
- fold change (FC) [21]: 158.6
- Activity [22]: Non-Toxic
- Activity [23]: inactive
- Activity [24]: inactive
- Activity [25]: Active
- Activity [26]: Non-Toxic

Compound: COc1cccc2c1C(=O)c1c(O)c3c(c(O)c1C2=O)C[C@@](O)(C(=O)CO)C[C@@H]3O[C@H]1C[C@H](N)[C@H](O)[C@H](C)O1 [DOXORUBICIN]
- Activity [27]: Toxic
- Activity [28]: Toxic
- Activity [29]: Toxic
- Activity [30]: Toxic
- Activity [31]: Toxic
- Activity [32]: Toxic
- Activity [33]: Toxic

Compound: COc1cc2c(cc1OC)CN(C(=O)c1ccc(-c3cccc(NC(=O)c4ccco4)c3)o1)CC2
- fold change (FC) [5]: 5.2
- fold change (FC) [6]: 30.4
- Activity [3]: 75.9%

Compound: COc1cc2c(cc1OC)CN(C(=O)c1ccc(-c3ccc(NC(=O)c4cccnc4)cc3)o1)CC2
- Activity [2]: 72.4%
- fold change (FC) [5]: 2.2
- Activity [3]: 14.7%

Compound: COc1cc2c(cc1OC)CN(C(=O)c1ccc(-c3ccc(NC(=O)c4ccco4)cc3)o1)CC2
- Activity [2]: 80.6%
- Activity [3]: 11.3%

Compound: COc1cccc(C(=O)Nc2ccccc2-c2ccc(C(=O)N3CCc4cc(OC)c(OC)cc4C3)o2)c1
- fold change (FC) [6]: 26.6
- Activity [8]: 81.2%
- Activity [3]: 83%

Compound: COc1cc2c(cc1OC)CN(C(=O)c1ccc(-c3ccc(NC(=O)c4ccc(C#N)cc4)cc3)o1)CC2
- fold change (FC) [6]: 41
- Activity [8]: 85.6%
- Activity [3]: 56.7%

Compound: COc1cc2c(cc1OC)CN(C(=O)c1ccc(-c3ccc(NC(=O)c4cccc([N+](=O)[O-])c4)cc3)o1)CC2
- fold change (FC) [6]: 53.5
- Activity [8]: 79.2%
- Activity [3]: 71%

Compound: COc1cc2c(cc1OC)CN(C(=O)c1ccc(-c3ccccc3NC(=O)c3ccc([N+](=O)[O-])cc3)o1)CC2
- fold change (FC) [6]: 24.3
- Activity [8]: 86.2%
- Activity [3]: 99.6%

Compound: COc1cc2c(cc1OC)CN(C(=O)c1ccc(-c3cccc(NC(=O)c4ccccc4[N+](=O)[O-])c3)o1)CC2
- fold change (FC) [6]: 19.5
- Activity [8]: 73.4%
- Activity [3]: 62.6%

Compound: COc1cc2c(cc1OC)CN(C(=O)c1ccc(-c3ccccc3NC(=O)c3ccc(Cl)cc3)o1)CC2
- fold change (FC) [6]: 24
- Activity [8]: 83%
- Activity [3]: 84.1%

Compound: COc1cc2c(cc1OC)CN(C(=O)c1ccc(-c3ccc(NC(=O)c4ccccc4)cc3)o1)CC2
- fold change (FC) [5]: 5.3
- fold change (FC) [6]: 221.1
- Activity [3]: 73.5%

Compound: COc1ccc(C(=O)Nc2cccc(-c3ccc(C(=O)N4CCc5cc(OC)c(OC)cc5C4)o3)c2)cc1
- fold change (FC) [6]: 72.6
- Activity [8]: 32.4%
- Activity [3]: 62.1%

Compound: COc1cc2c(cc1OC)CN(C(=O)c1ccc(-c3cccc(NC(=O)c4ccccc4Cl)c3)o1)CC2
- fold change (FC) [6]: 32.8
- Activity [8]: 67.3%
- Activity [3]: 80.8%

Compound: COc1cc2c(cc1OC)CN(C(=O)c1ccc(-c3cccc(NC(=O)c4ccc([N+](=O)[O-])cc4)c3)o1)CC2
- fold change (FC) [6]: 32.6
- Activity [8]: 99.8%
- Activity [3]: 99.7%

Compound: COc1cc2c(cc1OC)CN(C(=O)c1ccc(-c3ccc(NC(=O)c4ccc(OC(F)(F)F)cc4)cc3)o1)CC2
- fold change (FC) [6]: 118.3
- Activity [8]: 61.3%
- Activity [3]: 72.8%
